From patent US20120122727A1, “IN VITRO METHOD FOR PREDICTING WHETHER A COMPOUND IS GENOTOXIC IN VIVO” (priority 2009, published 2012)

Experiments:
[1] = test system: primary mouse hepatocytes; test: Gene expression (Affymetrix Mouse Genome 430 2.0) in primary mouse hepatocytes, true vs false GTX, 24 h and 48 h
[2] = test system: primary mouse hepatocytes; test: Gene expression in primary mouse hepatocytes, GTX vs non-GTX (four-gene classifier, 24 h)
Method: Hepatocyte cells were incubated and exposed to a compound for 24 h before being harvested for RNA isolation.
The results of the gene expression analysis may then be fed into a statistical software package such as R, Splus, or Microsoft Excel. […] If none or only one of these criteria were met, no point was scored.
For each of the four genes mentioned in the table (1700007K13RIK, GAS2L3, SPC25, DDIT4L), a statistical comparison was made between the normalized expression data for these genes. […] If none or only one of these criteria were met, no point was scored.
For each compound, the sum of the scores for four genes is taken. If this score is 0, a compound can be believed not to be genotoxic. If this score is 1, 2, 3 or 4, a compound is genotoxic.
If none or only one of these criteria were met, no point was scored.

Aflatoxin B1 [AFB1]
Gene expression AA561726 average [1]: −1.481
Gene expression AF000969 average [1]: −2.346
Gene expression AF022072 average [1]: −0.9913
Gene expression AF033112 average [1]: 1.033
Gene expression AF055573 average [1]: −2.3744
Gene expression AF069954 average [1]: 0.2361
Gene expression AF297615 average [1]: 2.175
Gene expression AF335325 average [1]: 1.3645
Gene expression AI594683 average [1]: 1.508
Gene expression AI747296 average [1]: −1.533
Gene expression AK005731 average [1]: 2.2191
Gene expression AK007854 average [1]: 1.5416
Gene expression AK010447 average [1]: −1.2768
Gene expression AK010738 average [1]: 0.6579
Gene expression AK014608 average [1]: 1.186
Gene expression AK017734 average [1]: 0.4796
Gene expression AK018383 average [1]: 0.4069
Gene expression AK019979 average [1]: −2.271
Gene expression AV095209 average [1]: −0.6169
Gene expression AV141095 average [1]: −1.192
Gene expression AV173869 average [1]: −0.8814
Gene expression AV216768 average [1]: −1.282
Gene expression AV219418 average [1]: 0.8603
Gene expression AV221299 average [1]: −0.7873
Gene expression AV246296 average [1]: 1.098
Gene expression AV251625 average [1]: 0.5471
Gene expression AV254764 average [1]: 1.543
Gene expression AV327248 average [1]: 1.4639
Gene expression BB009155 average [1]: 1.3686
Gene expression BB027848 average [1]: −0.004367
Gene expression BB043558 average [1]: 1.629
Gene expression BB046347 average [1]: 0.5079
Gene expression BB140436 average [1]: −0.4938
Gene expression BB204486 average [1]: −1.371
Gene expression BB223872 average [1]: 0.5263
Gene expression BB246912 average [1]: −1.2439
Gene expression BB275142 average [1]: 0.5302
Gene expression BB458460 average [1]: −1.132
Gene expression BB463610 average [1]: 1.2472
Gene expression BB730977 average [1]: −0.256
Gene expression BB743970 average [1]: 0.3813
Gene expression BB770528 average [1]: 0.8678
Gene expression BB781615 average [1]: 0.9722
Gene expression BC003284 average [1]: 0.7036
Gene expression BC004827 average [1]: −1.255
Gene expression BC005552 average [1]: −0.7309
Gene expression BC006713 average [1]: 0.942
Gene expression BC010318 average [1]: −0.9565
Gene expression BC012247 average [1]: 0.7954
Gene expression BC012955 average [1]: −1.403
Gene expression BC013893 average [1]: 0.3479
Gene expression BC017615 average [1]: −2.585
Gene expression BC019379 average [1]: −1.263
Gene expression BC019882 average [1]: 1.2329
Gene expression BC021352 average [1]: 1.59
Gene expression BC022148 average [1]: 1.0426
Gene expression BC025169 average [1]: −1.03
Gene expression BC026131 average [1]: −0.4476
Gene expression BC027026 average [1]: 0.6995
Gene expression BC027121 average [1]: 0.9799
Gene expression BC027185 average [1]: 0.0776
Gene expression BE956581 average [1]: 1.7703
Gene expression BF719766 average [1]: 1.1094
Gene expression BG065754 average [1]: 0.6884
Gene expression BG066491 average [1]: −1.6995
Gene expression BG076151 average [1]: 0.4779
Gene expression BG076333 average [1]: −0.3573
Gene expression BG797099 average [1]: 1.027
Gene expression BG967046 average [1]: 0.6249
Gene expression BI651416 average [1]: 1.979
Gene expression BI966443 average [1]: 0.699
Gene expression BM198879 average [1]: 1.579
Gene expression BM200015 average [1]: 0.9342
Gene expression BM230508 average [1]: 0.637
Gene expression BM936480 average [1]: 0.1463
Gene expression BQ174991 average [1]: −0.6262
Gene expression L21027 average [1]: −1.868
Gene expression NM_007556 average [1]: −0.9667
Gene expression NM_007980 average [1]: 0.412
Gene expression NM_007987 average [1]: 0.8772
Gene expression NM_008522 average [1]: 2.271
Gene expression NM_008935 average [1]: −1.772
Gene expression NM_009897 average [1]: 1.054
Gene expression NM_011075 average [1]: 1.1557
Gene expression NM_011176 average [1]: 1.3047
Gene expression NM_011316 average [1]: 0.6494
Gene expression NM_012006 average [1]: 1.7541
Gene expression NM_013642 average [1]: −0.2528
Gene expression NM_013738 average [1]: 0.4146
Gene expression NM_013929 average [1]: 0.7449
Gene expression NM_018881 average [1]: 0.2001
Gene expression NM_019738 average [1]: −2.37
Gene expression NM_030697 average [1]: 1.271
Gene expression NM_053122 average [1]: −2.304
Gene expression NM_134147 average [1]: −1.51
Gene expression NM_134188 average [1]: −0.159
Gene expression X62701 average [1]: −0.6611
Gene expression data AF000969 (Cadps2) [1]: −2.17
Gene expression data AF022072 (Grb10) [1]: −1.2526
Gene expression data AF065917 (Lif) [1]: 0.6896
Gene expression data AF204959 (Cyp3a25 /// LOC622249) [1]: 1.404
Gene expression data AF297615 (Ggta1) [1]: 1.1224
Gene expression data AI594683 (Dmn) [1]: 1.048
Gene expression data AI596632 (Ptprg /// LOC632664) [1]: −1.9945
Gene expression data AI987929 (Ndrg1) [1]: −0.8074
Gene expression data AK004419 (Fbxl17) [1]: −1.365
Gene expression data AK005731 (1700007K13Rik) [1]: 2.2462
Gene expression data AK007766 (1810044A24Rik) [1]: −1.554
Gene expression data AK007854 (1810053B23Rik) [1]: 1.391
Gene expression data AK009736 (Gpr137b /// LOC664862 /// LOC673335) [1]: −0.5076
Gene expression data AK010447 (Smyd3) [1]: −1.2553
Gene expression data AK014608 (4632434l11Rik) [1]: 1.765
Gene expression data AK019979 (2610528E23Rik) [1]: −2.537
Gene expression data AV095209 (Mthfd1l) [1]: −0.8398
Gene expression data AV141095 (1110033M05Rik) [1]: −1.295
Gene expression data AV173571 (1700106N22Rik) [1]: −1.239
Gene expression data AV219418 (Ldhb) [1]: 0.2817
Gene expression data AV223474 (Zdhhc14) [1]: −1.025
Gene expression data AV298304 (Homez) [1]: 1.03
Gene expression data AV327248 (Zfp365 /// LOC674611) [1]: 0.8055
Gene expression data AV377066 (9130221J18Rik) [1]: 1.0883
Gene expression data AW240761 (Tbc1d5) [1]: −1.118
Gene expression data AW543460 (Pard3) [1]: −0.2756
Gene expression data AW543723 [1]: 1.427
Gene expression data AW986246 (Maoa) [1]: −0.3385
Gene expression data BB027848 (4732466D17Rik) [1]: −0.016
Gene expression data BB043558 (9230114K14Rik) [1]: 1.671
Gene expression data BB275142 (AW456874) [1]: 1.009
Gene expression data BB308836 (Ppm1l) [1]: −1.077
Gene expression data BB318221 (Zdhhc14) [1]: −1.0808
Gene expression data BB463610 (4632434l11Rik) [1]: 1.7658
Gene expression data BB526605 (Mipol1) [1]: −0.7181
Gene expression data BB770528 (Rai2) [1]: 0.7477
Gene expression data BB821363 (Scfd2) [1]: −1.354
Gene expression data BC004827 (Psat1) [1]: −1.0032
Gene expression data BC008626 (Icam1) [1]: 1.4158
Gene expression data BC010462 (BC010462) [1]: 0.9985
Gene expression data BC012247 (Dcxr) [1]: 0.3677
Gene expression data BC012260 (Psmf1) [1]: 1.2375
Gene expression data BC015270 (Hist2h3c2) [1]: 1.093
Gene expression data BC016073 (Cdkal1) [1]: −1.1
Gene expression data BC016265 (Ube2e2) [1]: −0.8797
Gene expression data BC019882 (Acaa1b) [1]: 0.4654
Gene expression data BC025501 (Aaas) [1]: 1.14
Gene expression data BC025837 (Sbk1) [1]: 0.4694
Gene expression data BC025915 (Cova1) [1]: −0.642
Gene expression data BC026422 (Tgm1) [1]: 0.8843
Gene expression data BF719766 (Thyn1) [1]: 0.3892
Gene expression data BG065754 (Ccng1) [1]: 0.8383
Gene expression data BG066903 (Kif16b) [1]: −0.5074
Gene expression data BG069873 (Gnb1l) [1]: 0.7276
Gene expression data BG070887 (Gtdc1) [1]: −1.473
Gene expression data BG076151 (Ppm1d) [1]: 0.6026
Gene expression data BG261907 (Large) [1]: −1.119
Gene expression data BI651416 (Cdc42bpg) [1]: 1.8011
Gene expression data BI660702 (Ell3) [1]: 0.4068
Gene expression data BM198879 (Ercc5) [1]: 1.61
Gene expression data BM230508 (A030007D23Rik) [1]: 0.5919
Gene expression data NM_007987 (Fas) [1]: 0.628
Gene expression data NM_008522 (Ltf) [1]: 1.055
Gene expression data NM_008576 (Abcc1) [1]: −0.1885
Gene expression data NM_011176 (St14) [1]: 1.289
Gene expression data NM_011316 (Saa4) [1]: 0.2733
Gene expression data NM_012006 (Acot1) [1]: 1.251
Gene expression data NM_013866 (Zfp385) [1]: 0.9513
Gene expression data NM_018770 (Igsf4a) [1]: −0.439
Gene expression data NM_021451 (Pmaip1) [1]: 1.1
Gene expression data NM_025770 (Atg10) [1]: −1.128
Gene expression data NM_028803 (Gbe1) [1]: −1.004
Gene expression data NM_030697 (Ankrd47) [1]: 1.8143
Gene expression data NM_053168 (Trim11) [1]: 1.268
Gene expression data NM_134188 (Acot2) [1]: 0.01207
Gene expression data Y15910 (Diap2) [1]: −1.889
Ratios of gene expression treated/untreated 1700007K13RIK [2]: 2.912
Ratios of gene expression treated/untreated DDIT4L [2]: 1.616
Ratios of gene expression treated/untreated GAS2L3 [2]: 1.234
Ratios of gene expression treated/untreated SPC25 [2]: 1.523
Total score [2]: 4
score 1700007K13RIK [2]: 1
score DDIT4L [2]: 1
score GAS2L3 [2]: 1
score SPC25 [2]: 1
